{
  "source": "patent US20050261246A1",
  "about": "“Methods for treating inflammatory and autoimmune diseases” (priority 2004, published 2005)",
  "key": {"[1]": {"system": "Lewis rats with Adjuvant-Induced Arthritis", "test": "Adjuvant-induced arthritis (AA) rat model: footpad width, radiographs, spleen weight", "format": "in vivo", "procedure": "Summary: Adjuvant-Induced Arthritis (“AA”) was induced by intradermal injection of complete Freund's adjuvant (CFA) into the base of the tail of Lewis rats. Controls received intradermal injections of the arthritogenic antigen, M. butyricum suspended in saline. […] AA and control rats were given once-daily intraperitoneal (i.p.) injections of narcistatin (5 mg/Kg/day, in 250 μl sterile saline), vehicle, or no treatment initiated at disease onset and continued through severe disease.\nAdult male Lewis rats (200-250 g) were purchased from Charles River Laboratories, Raleigh, N.C. and housed two per cage. The animals were allowed to acclimate to the Sun Health Research Institute's vivarium for 7 days prior to the start of the experiment. The animals were maintained on a 12-h off/on light schedule. For AA rats rodent Diet (Purina Lab Diet 5001) was placed in the bottom of the cage and water was supplied using long-stemmed sipper tubes for easy access to food and water. […] Animals were weighed and observed daily to ensure adequate weight gain and good general health. Body weights and footpad measures were started 1 week prior to the first adjuvant injection to acclimate the animals to these mild stresses and obtain baseline data. Other than the development of arthritis, the good health of the animals was maintained throughout the course of the experiments. Protocols for the use and care of the animals in the study were approved prior to beginning the experiments by the Sun Health Research Institute Animal Use and Care Committee and complied with NIH guidelines for the humane use and care of research animals. Dorsoplantar footpad measurements were completed every other day. Prior to sacrifice the animals were given a 1.0 ml intraperitoneal (i.p.) injection of 8% chloral hydrate in sterile saline and radiographs were taken of their hind limbs to assess disease severity. The animals were then sacrificed using an overdose of chloral hydrate.\nSodium narcistatin was synthesized as previously described (27). CFA was prepared by emulsifying Mycobacterium butyricum (0.03 g dried and heat killed; Difco, Detroit, Mich. in 10 ml sterile mineral oil). M. butyricum (0.03 g) also was suspended in 10 ml sterile saline. The CFA and M. butyricum in saline were prepared by grinding the M. butyricum with a mortar and pestle until the lyophilized bacteria had turned from a light beige to an eggshell white powder. The mineral oil or saline was then slowly worked into the heat-killed bacteria using the mortar and pestle. The suspensions were treated with a sonic dismembraner for 5 min to ensure that the bacterial cell wall remained suspended in the mineral oil or saline until the animal injections. While there is variability in severity of disease development between the batches of adjuvant, there is very little variability within each batch. All animals in each experiment were challenged with the same preparation of adjuvant and 100% of the animals developed arthritis with similar timing of disease onset.\nLewis rats were randomly assigned into five experimental groups of four animals per group. The experimental groups were 1) saline/M. Butyricum suspended in saline (non-arthritic; control for drug and antigen challenge), 2) sodium narcistatin/M. Butyricum suspended in saline (non-arthritic; drug control for antigen challenge), 3) no treatment-CFA (arthritic; control for stress of injections), 4) saline-CFA (arthritic; control for drug treatment), and 5) sodium-narcistatin-CFA (arthritic) treatments. The experiment was completed with an N=4 then repeated with an additional N=4. The data from each group in the first and repeated experiment were compared. No statistical differences between the findings from these repeat experiments were found; therefore, the data was combined to give an N=8 for each experimental group. CFA or saline/M. Butyricum injections were given on experimental day 1. […]"}, "[2]": {"system": "TNFα and MCP-1 production", "test": "In vivo air-pouch assay, LPS-stimulated cytokine production", "parameters": "species or system mouse", "details": "SNS 5 mg/kg then LPS 1 μg/ml, vs LPS-stimulated controls", "procedure": "The reduction of TNF-alpha (P=0.04) and MCP-1 (P=0.03) in SNS-treated mice upon LPS stimulation. PBS_PBS: PBS followed by PBS; PBS_LPS: PBS followed by LPS (1 μg/ml); SNS_PBS: SNS followed by PBS; SNS_LPS: SNS (5 mg/kg) followed by LPS (1 μg/ml). Results are derived from three independent experiments. Statistical analysis was performed using one-way ANOVA.\nTo further test effects of SNS in whole animals, we established an air-pouch assay to evaluate the effect of the compound, SNS, on LPS-stimulated cytokine production, following a procedure described previously (9). (See FIG. 14) Mice were pre-treated with PBS or SNS then challenged with LPS. The pouch wash-out was then analyzed for cytokine production using BD™ CBA Mouse Inflammatory Kit (BD Biosciences)."}, "[3]": {"details": "AA rats, 5 mg/Kg/day i.p., vs vehicle treated AA rats"}},
  "data": [
    {"smiles": "O=C1N[C@@H]2C(=C[C@H](O)[C@H]3OP(=O)(O)O[C@H]32)c2cc3c(c(O)c21)OCO3", "note": "[SNS, sodium narcistatin]", "values": [
      {"measurement": "reduction of bone loss, as measured by radiographic analysis", "setting": "[1]; [3]", "result": "~50", "unit": "%"},
      {"measurement": "reduction of hind limb inflammation, as measured by dorsoplantar width", "setting": "[1]; [3]", "result": "~70", "unit": "%"},
      {"measurement": "time of disease onset", "setting": "[1]; CFA-challenged rats", "result": "did not change the time of disease onset"},
      {"measurement": "soft tissue swelling of the dorsoplantar footpads", "setting": "[1]; CFA-challenged rats, day 23 to day 28 post-immunization, vs vehicle-treated arthritic rats", "result": "significantly decreased the soft tissue swelling"},
      {"measurement": "redness and soft tissue swelling of hind limbs", "setting": "[1]; arthritic rats, daily treatment day 10 through day 28, photomicrographs day 28", "result": "dramatically decreased the redness and soft tissue swelling"},
      {"measurement": "bone destruction and cartilage loss in radiographs", "setting": "[1]; arthritic rats, day 28, vs saline-treated arthritic rats", "result": "decreases in bone destruction (mainly osteoporosis and erosions) and cartilage loss"},
      {"measurement": "radiographic scores of ankle joints", "setting": "[1]; arthritic rats, day 28, vs vehicle or no treatment, P<0.05", "result": "significantly lower radiographic scores"},
      {"measurement": "spleen weight, arthritic rats", "setting": "[1]; day 28, vs Saline-CFA", "result": "blocked this increase in spleen weight"},
      {"measurement": "spleen weight, antigen-challenged non-arthritic rats", "setting": "[1]; day 28, vs saline", "result": "did not differ"},
      {"measurement": "footpad width in non-arthritic animals", "setting": "[1]; non-arthritic, vehicle vs drug", "result": "no differences in footpad width"},
      {"measurement": "MCP-1 in air-pouch wash-out", "setting": "[2]; P=0.03", "result": "significantly reduced"},
      {"measurement": "TNFα in air-pouch wash-out", "setting": "[2]; P=0.04", "result": "significantly reduced"}
    ]}
  ]
}
